# Data from patent US11291655B2, “RAD51 inhibitors” (Cyteir Therapeutics, Inc., priority 2017, dated 2022).
# pEC50: −log10 of the molar value.
# System: Daudi Cell Culture
# Experiment: Compound primary screening in Daudi cell culture
# Assay type: cell-based
# Settings: Homo sapiens, 168 h; Daudi cells, 1250 cells per well, reads on Day 7
# Description: Compound Primary Screening
# 1. Materials and Supplies
# Plastic ware and consumables needed for this experiment include: Cell Culture media; Evaporation Buffer media; 100% DMSO; 96 well U-bottom sterile culture plates; 250 mL bottle; 1.5 mL Opaque amber epi tubes; Epi Tube rack; 300 mL reservoirs; 25 mL reservoir; 25 mL serological pipette tips; 5 mL serological pipette tips P1000 Pipette Tips; and P200 Pipette Tips.
# Equipment needed for this experiment include: Viaflo 384 liquid handler; Eppendorf serological pipette; Eppendorf P1000 Pipette; and Eppendorf P200 Pipette
# Daudi Cell Culture is also needed for this experiment.
# Lastly, compounds (e.g., the compounds of this invention) to be tested are needed.
# All steps were performed in a sterile environment inside the Biosafety cabinet.
# A 96 well u-bottom plate was prepared by writing the experiment number, plate number, date and initials in the top right corner of the plate lid. With a sterile 300 ml reservoir, and 25 ml serological pipette, evaporation buffer media was pipetted into reservoir in 25 ml increments. Using the liquid handler, 150 ul of evaporation buffer media was pipetted from reservoir into rows A and H, and Columns 1 and 12 of the 96 well u-bottom plate. Cell cultures were counted to obtain the density of cells per ml, and the culture viability. The cell density information was used to obtain 1,000,000 cells from culture using a 5 mL serological pipette into an epi tube. The cell density information from the culture was used to calculate the number of cells and volume of media needed for the assay to seed 1250 cells in 130 ul of media per available culture well in the 96 well u-bottom plate. Rows B through F were used for cells (50 wells in total), with row G left for an empty media control. The calculation was overestimated by 10 mL to account for the dead volume in the 300 ml reservoir. Once the media volume was calculated, the appropriate volume of media was pipetted in 25 mL increments into the 250 mL bottle using a 25 mL serological pipette. The 250 ml bottle was capped tightly, and placed into a 37° C. water bath for 2 minutes. While the culture media was warming, 10 mL of fresh media was pipetted from the 500 mL culture media bottle into a sterile 25 mL reservoir. Using the Eppendorf multichannel pipette, 130 ul of media was pipetted from the 25 mL reservoir into row G of the 96 well u-bottom plate. Once the 250 mL bottle of media was warmed, the volume of culture needed was pipetted into the bottle, and mixed gently with a 25 mL serological pipette as to not create bubbles, and then the contents of the bottle were pipetted into a new 300 mL reservoir. Using the liquid handler, 130 ul of culture was pipetted from the 300 mL reservoir into rows B through F of the 96 well u-bottom plate. Once the culture was added, the plate was placed into a 37° C. incubator until the compound master plate was prepared for use.
# Two 96 well u-bottom plates were prepared by writing the master plate name in the upper right corner of the plate lid. Labeling one DMSO master and the other Media Master. The compounds of interest were obtained from the laboratory freezer, and placed into a 25 well storage box with a lid, and set the box aside. The compounds were vortexed after thawing but before use. Using an automatic multichannel pipette, 20 ul of 100% DMSO was pipetted into wells B3-B11 through G3-G11 of the DMSO master plate. For each compound on the master plate, 50 ul of the compound were pipetted in the appropriate well of row 2 (reference plate map to determine appropriate well). A serial dilution was prepared beginning by aspirating 20 ul from row 2 and mixing with row 3, repeating until row 11 was reached. Using the liquid handler, 194 ul of Daudi media was dispensed into wells B2-B11 through G2-G11 of the Media master plate. Using the liquid handler, 6 ul from the DMSO master plate was aspirated and dispensed into the media master plate, mixing 100 ul twice. […]
row,SMILES,pEC50
1,CC(=O)Nc1ccc(-c2cnc(-c3ccc(NC(=S)NC(C)C)cc3)s2)c(S(=O)(=O)NC(C)(C)C)c1 [Compound D30],> 5.30
2,CC(C)OC(=O)Nc1ccc(-c2ncc(-c3ccc(NS(=O)(=O)c4ccccc4)cc3S(=O)(=O)NC(C)(C)C)s2)cc1 [Compound E1],< 5.00
3,CC(C)OC(=O)Nc1ccc(-c2ncc(-c3ccc(NS(=O)(=O)Cc4ccccc4)cc3S(=O)(=O)NC(C)(C)C)s2)cc1 [Compound E2],< 5.00
4,CC(=O)Nc1ccc(-c2cnc(-c3ccc(NC(C)=O)cc3S(=O)(=O)NC(C)(C)C)s2)c(S(=O)(=O)NC(C)(C)C)c1 [Compound E3],> 5.00
5,CC(=O)Nc1ccc(-c2ncc(-c3ccc(N)cc3S(=O)(=O)NC(C)(C)C)s2)cc1 [Compound E4],< 5.00
6,CC(=O)Nc1ccc(-c2ncc(-c3ccc(NC(=S)NC(C)C)cc3S(=O)(=O)NC(C)(C)C)s2)cc1 [Compound E5],> 5.00
7,CC(=O)Nc1ccc(-c2cnc(-c3ccc(N)cc3S(=O)(=O)NC(C)(C)C)s2)c(S(=O)(=O)NC(C)(C)C)c1 [Compound E8],< 5.00
8,CC(=O)Nc1ccc(-c2cnc(-c3ccc(NC(=S)NC(C)C)cc3S(=O)(=O)NC(C)(C)C)s2)c(S(=O)(=O)NC(C)(C)C)c1 [Compound E9],> 6.00
9,CC(=O)Nc1ccc(-c2cnc(-c3ccc(NC(=O)OC(C)C)cc3)s2)c(S(=O)(=O)NC(C)(C)C)c1 [Compound E11],> 5.30
10,CC(C)(C)NS(=O)(=O)c1cc(Nc2nccs2)ccc1-c1cnc(-c2ccc(N)cc2)s1 [Compound E12],< 5.00
11,CC(=O)N(C)c1ccc(-c2cnc(-c3ccc(N)cc3)s2)c(S(=O)(=O)NC(C)(C)C)c1 [Compound E14],< 5.00
12,CC(=O)N(C)c1ccc(-c2cnc(-c3ccc(NC(=S)NC(C)C)cc3)s2)c(S(=O)(=O)NC(C)(C)C)c1 [Compound E15],< 5.00
13,Cn1ccnc1Nc1ccc(-c2cnc(-c3ccc(N)cc3)s2)c(S(=O)(=O)NC(C)(C)C)c1 [Compound E16],< 5.00
14,CC(C)NC(=S)Nc1ccc(-c2ncc(-c3ccc(Nc4nccn4C)cc3S(=O)(=O)NC(C)(C)C)s2)cc1 [Compound E17],< 5.00
15,Cn1ccnc1Nc1ccc(-c2cnc(-c3ccc(N)cc3)s2)c(S(N)(=O)=O)c1 [Compound E18],< 5.00
16,CC(C)NC(=S)Nc1ccc(-c2ncc(-c3ccc(Nc4nccn4C)cc3S(N)(=O)=O)s2)cc1 [Compound E19],< 5.00
17,CC(=O)N(C)c1ccc(-c2cnc(-c3ccc(NC(=O)OC(C)C)cc3)s2)c(S(=O)(=O)NC(C)(C)C)c1 [Compound E20],> 5.00
18,CC(=O)Nc1ccc(-c2ncc(-c3ccc(NC(=S)NC(C)C)cc3S(=O)(=O)NC(C)(C)C)s2)c(S(=O)(=O)NC(C)(C)C)c1 [Compound E21],> 5.30
19,CC(=O)Nc1ccc(-c2cnc(-c3ccc(NC(=O)OCC(C)C)cc3)s2)c(S(=O)(=O)NC(C)(C)C)c1 [Compound G1],> 5.30
20,COC(=O)Nc1ccc(-c2ncc(-c3ccc(NC(C)=O)cc3S(=O)(=O)NC(C)(C)C)s2)cc1 [Compound G2],> 5.00
21,CCOC(=O)Nc1ccc(-c2ncc(-c3ccc(NC(C)=O)cc3S(=O)(=O)NC(C)(C)C)s2)cc1 [Compound G3],> 6.00
22,CC(=O)Nc1ccc(-c2cnc(-c3ccc(NC(=O)CC(C)C)cc3)s2)c(S(=O)(=O)NC(C)(C)C)c1 [Compound G4],< 5.00
23,CC(=O)Nc1ccc(-c2cnc(-c3ccc(NS(C)(=O)=O)cc3)s2)c(S(=O)(=O)NC(C)(C)C)c1 [Compound G5],< 5.00
24,CC(=O)Nc1ccc(-c2cnc(-c3ccc(NS(=O)(=O)c4ccccc4)cc3)s2)c(S(=O)(=O)NC(C)(C)C)c1 [Compound G6],> 5.00

row,SMILES,pEC50
1,CCS(=O)(=O)Nc1ccc(-c2ncc(-c3ccc(NC(C)=O)cc3S(=O)(=O)NC(C)(C)C)s2)cc1 [Compound G7],< 5.00
2,COCCS(=O)(=O)Nc1ccc(-c2ncc(-c3ccc(NC(C)=O)cc3S(=O)(=O)NC(C)(C)C)s2)cc1 [Compound G8],< 5.00
3,CNS(=O)(=O)Nc1ccc(-c2ncc(-c3ccc(NC(C)=O)cc3S(=O)(=O)NC(C)(C)C)s2)cc1 [Compound G9],< 5.00
4,CC(=O)Nc1ccc(-c2cnc(-c3ccc(NC(=O)NC(C)C)cc3)s2)c(S(=O)(=O)NC(C)(C)C)c1 [Compound G10],> 5.00
5,"CC(=O)Nc1ccc(-c2cnc(-c3ccc(NC(=O)OC(C)(C)C)cc3)s2)c(S(=O)(=O)NC(C)(C)C)c1 [Compound G11, tert-butyl N-[4-[5-[4-acetamido-2-(tert-butylsulfamoyl)phenyl]thiazol-2-yl]phenyl]carbamate]",> 5.30
6,CC(C)OC(=O)Nc1ccc(-c2ncc(-c3ccc(NC(=O)[C@@H]4CCCN4)cc3S(=O)(=O)NC(C)(C)C)s2)cc1 [Compound H1],> 5.30
7,CC(C)OC(=O)Nc1ccc(-c2ncc(-c3ccc(NC(=O)[C@H]4CCCN4)cc3S(=O)(=O)NC(C)(C)C)s2)cc1 [Compound H2],> 5.30
8,CC(C)OC(=O)Nc1ccc(-c2ncc(-c3ccc(NC(=O)C4CC4)cc3S(=O)(=O)NC(C)(C)C)s2)cc1 [Compound H3],> 5.30
9,CCC(=O)Nc1ccc(-c2cnc(-c3ccc(NC(=O)OC(C)C)cc3)s2)c(S(=O)(=O)NC(C)(C)C)c1 [Compound H4],> 6.00
10,CC(C)OC(=O)Nc1ccc(-c2ncc(-c3ccc(NC(=O)OCc4ccccc4)cc3S(=O)(=O)NC(C)(C)C)s2)cc1 [Compound H5],> 6.00
11,CCOC(=O)Nc1ccc(-c2cnc(-c3ccc(NC(=O)OC(C)C)cc3)s2)c(S(=O)(=O)NC(C)(C)C)c1 [Compound H6],> 6.00
12,COC(=O)Nc1ccc(-c2cnc(-c3ccc(NC(=O)OC(C)C)cc3)s2)c(S(=O)(=O)NC(C)(C)C)c1 [Compound H7],> 6.00
13,CC(C)OC(=O)Nc1ccc(-c2ncc(-c3ccc(NC(=O)OC(C)C)cc3S(=O)(=O)NC(C)(C)C)s2)cc1 [Compound H8],> 6.00
14,CC(C)OC(=O)Nc1ccc(-c2ncc(-c3ccc(NC(=O)c4ccccc4)cc3S(=O)(=O)NC(C)(C)C)s2)cc1 [Compound H9],> 6.00
15,CC(C)OC(=O)Nc1ccc(-c2ncc(-c3ccc(NC(=O)C(C)C)cc3S(=O)(=O)NC(C)(C)C)s2)cc1 [Compound H10],> 6.00
16,CC(C)OC(=O)Nc1ccc(-c2ncc(-c3ccc(NS(C)(=O)=O)cc3S(=O)(=O)NC(C)(C)C)s2)cc1 [Compound H11],< 5.00
17,"CCNc1ccc(-c2cnc(-c3ccc(NC(=O)OC(C)C)cc3)s2)c(S(=O)(=O)NC(C)(C)C)c1 [Compound I1, isopropyl N-[4-[5-[2-(tert-butylsulfamoyl)-4-(ethylamino)phenyl]thiazol-2-yl]phenyl]carbamate]",> 5.30
18,"CC(C)OC(=O)Nc1ccc(-c2ncc(-c3ccc(O)cc3S(=O)(=O)NC(C)(C)C)s2)cc1 [Compound I2, isopropyl N-[4-[5-[2-(tert-butylsulfamoyl)-4-hydroxy-phenyl]thiazol-2-yl]phenyl]carbamate]",> 5.30
19,"CC(C)OC(=O)Nc1ccc(-c2ncc(-c3ccc(NCC(F)(F)F)cc3S(=O)(=O)NC(C)(C)C)s2)cc1 [Compound I3, isopropyl N-[4-[5-[2-(tert-butylsulfamoyl)-4-(2,2,2-trifluoroethylamino)phenyl]thiazol-2-yl]phenyl]carbamate]",> 5.30
20,CC(C)OC(=O)Nc1ccc(-c2ncc(-c3ccc(NC4(C)COC4)cc3S(=O)(=O)NC(C)(C)C)s2)cc1 [Compound I4],> 5.30
21,CNC(=O)c1ccc(-c2cnc(-c3ccc(NC(=O)OC(C)C)cc3)s2)c(S(=O)(=O)NC(C)(C)C)c1 [Compound I5],> 5.30
22,CC(C)OC(=O)Nc1ccc(-c2ncc(-c3ccc(C(N)=O)cc3S(=O)(=O)NC(C)(C)C)s2)cc1 [Compound I6],> 5.30
23,CC(C)OC(=O)Nc1ccc(-c2ncc(-c3ccc(CO)cc3S(=O)(=O)NC(C)(C)C)s2)cc1 [Compound J1],> 5.30
24,CC(C)OC(=O)Nc1ccc(-c2ncc(-c3ccc(-c4ccn[nH]4)cc3S(=O)(=O)NC(C)(C)C)s2)cc1 [Compound J2],> 5.30
